This is an account of results in patent US12280039B2, “Cancer vaccine compositions and methods of use thereof” (priority 2018, dated 2025).

The test system of the assay is live 4T1 tumor cells. Nature of the assay: Serum IgG antibody binding to live 4T1 tumor cells. It counts as in vivo, mice. The conditions noted are these: inactivated 4T1 vaccine day 1 and 14; serum 1:1000 dilution.

SMILES strings stand for the structures.

Method: The vaccines were given subcutaneously in equal volumes in both the left and right forelimb of the mice, close to the foot. Mice received 1.7×10^6 cells per mouse per vaccine. Vaccines were given on day 1 and then again on day 14. Mice were euthanized 8 days after the booster vaccine was given and spleen and blood was collected. The serum from these mice was screened against live 4T1 tumor cells for IgG antibody binding by incubating serum with the cells at either a 1:500 or a 1:1000 dilution, staining with a fluorescently-labeled donkey anti-mouse secondary antibody, then subtracting out the background staining (normal mouse serum at 1:500 and 1:1000).

Turning to `CC(C)Cn1cnc2c(N)nc3ccccc3c21` [Imiquimod, imiquimod], the “serum IgG binding to live 4T1 cells (staining)” value is “variable amounts”.
